Reference: publication PMC8281026, “Peptide Based Inhibitors of Protein Binding to the Mitogen-Activated Protein Kinase Docking Groove” (Frontiers in Molecular Biosciences, 2021)

Assays:
[1] = tested on: HEK-293T cells; test: Cellular uptake by fluorescence microscopy; format: cell-based; conditions: fluorescence microscopy
Method: (§1) The cellular uptake of the fluorescent labeled peptide into HEK-293T cells were analyzed by fluorescence microscopy (Cytation 3, BioTek Instruments) and two peptides were further examined by confocal laser scanning microscopy (Zeiss LSM-710 system). Cells were incubated with peptides in serum-free medium (DMEM) for 3 h at 37 °C and then washed twice with 200 μl of serum-free medium before analyzing.

[2] = tested on: ERK1/2 phosphorylation in HEK-293T cells; test: ERK phosphorylation level in cells by Western-blot after EGF stimulation; format: cell-based; conditions: pre-treated 20 μM, 5 h, EGF 100 ng/ml
Method: To study the effect of peptides on the ERK pathway EGF stimulation and Western-blot analysis were used. HEK-293T cells were plated on 48-well plate and were serum-starved for overnight. Then cells were treated with the Cf-peptide at 20µM for 5 h in 100 μL DMEM and then stimulated by addition of EGF (Sigma, E9644) in 100 ng/mL concentration. Stimulation was terminated at different time points by adding 35 μL 4× SDS loading buffer. Cells were lysed and 10 μL of each sample was subjected to SDS-PAGE. […] The intensities of the protein bands were determined by densitometry and monitored after the stimulation in time. […] Activated (i.e., phosphorylated) ERK and p38 were detected by phospho-p44/42 MAPK (ERK1/2) (see above) and phospho-p38 MAPK (Thr180/Tyr182) rabbit primary antibody (Cell Signaling, #9215) in 1:2000 dilution, respectively. The total ERK and p38 content of the samples were determined by anti-p44/42 MAPK (ERK1/2) mouse primary antibody and anti-p38α MAPK mouse mAb (Cell Signaling, #9228), respectively. […] As secondary antibody anti-rabbit antibody (IRDye® 800CW Goat anti-Rabbit IgG, #926-32211) in 1:5,000 and secondary anti-mouse antibody (IRDye® 680CW Goat anti-Mouse IgG, #926-68070 in 1: 10,000 were used. Protein bands were detected and quantified with LI-COR Odyssey® Clx infrared imaging system. Statistical analysis was done using two-sided independent Student’s t-test.

[3] = tested on: HL-60 cells; test: Cellular uptake by flow cytometry; format: cell-based, human; conditions: for fluorescence intensity relative to peptide 9: 90 min, HL-60, flow cytometry, trypsin treated
Method: (§2) To study the cellular uptake of fluorescent labeled peptides and conjugate by flow cytometry, 10^5 HL-60 cells per well were plated on 24-well plates and were incubated for 24 h at 37°C. Then cells were treated with the solution of compounds in serum-free media for 90 min. The cellular uptake was analysed at 1, 5 and 10 µM concentrations. Cells treated with serum-free media were the control. At the end of incubation, treatment solutions were removed, and the cells were treated with 100 μL trypsin for 2 min to remove the membrane proteins in order to eliminate non-specific binding of conjugates. The effect of trypsin was terminated by 900 μL HPMI containing 10% fetal calf serum, and the cell suspensions were transferred into FACS-tubes. After centrifugation at 216g at 4°C for 5 min the supernatant was removed. Then cells were resuspended in 500 µl HPMI, and the intracellular fluorescence intensity of HL-60 cells was monitored (on channel FITC LP505; emission at λ = 505 nm; LP 505, BP 530/30) by flow cytometry (BD LSR II, BD Bioscience, San Jose, CA, equipped with 488 nm; Coherent Sapphire, 22 mW laser.) which is proportional to the cellular uptake. Data were analysed with FACSDiVa 5.0 software. Statistical analysis was done using two-sided independent Student’s t-test.

[4] = tested on: HL-60 cells; test: Percent of live cells by flow cytometry; format: cell-based, human; conditions: 10 µM, 90 min, serum-free media, HL-60, three independent measurements
Method: as §2

[5] = tested on: HEK-293T cells; test: Intracellular distribution by confocal laser scanning microscopy; format: cell-based; conditions: 10 and 20 µM, 3 h
Method: as §1

Row | Substance | internalization of the conjugate into HEK-293T cells ([1]; after 5 h of treatment at 5 µM (Figure 4 legend: 20 μM, 5 h)) | amount of phosphorylated ERK [2] | fluorescence intensity relative to peptide 9 ([3]; 1 µM) [times] | fluorescence intensity relative to peptide 9 ([3]; 5 µM) [times] | fluorescence intensity relative to peptide 9 ([3]; 10 µM) [times] | internalization compared to the peptide without the Dabcyl-group ([3]; at different concentrations) | number of live cells [4] [%] | internalization into HEK-293T cells ([1]; serum-free medium, 37 °C, up to 3 h, Figure 1) | intracellular distribution [5]
1 | Cf-SLQRKKPPWLKLDIPSC(CH2-CO-RRRRRRRR-NH2)-NH2 [compound 3, Cf-labeled octaarginine conjugate] | showed internalization | some reduction |  |  |  |  |  |  | 
2 | Dabcyl-RRRPPWLRLDIRRK(Cf)-NH 2 [compound 11] |  |  | 9.2 | 23.5 | 16.9 | 10–24 times | 40 | increased the peptide internalization | more diffuse distribution
